From patent US12496275B2, “Drug delivery methods and compositions” (Mayo Foundation for Medical Education and Research, priority 2019, dated 2025)

Experiments:
[1] = Analysis of encapsulation efficiency and drug loading efficiency of liposomes; type: physicochemical
Description: Analysis of encapsulation efficiency and drug loading efficiency: Liposome-encapsulation efficiency was measured by determining the amount of entrapped drugs. Briefly, the drug-loaded liposome sample was centrifuged in an amicon ultra centrifugal filter with a cut off size of 3 kD in order to separate the unentrapped drug. Total (Tdrug) and unentrapped drug (UEdrug) amounts were determined by measuring the absorbance at λx of respective drugs and comparing with corresponding standard curves. The encapsulated drug (Edrug) amount was calculated by subtracting the amount of unentrapped drugs (UEdrug) from total drug (Tdrug) amount. The drug-encapsulation efficiency (EE %) was expressed as the percentage of the encapsulated amount (Edrug) to the total amount (Tdrug). Drug loading efficiency was expressed as the percentage of encapsulated drug (Edrug) to the total lipid amount (Tlipid).

[2] = stated, no test described; cited from earlier work
[3] = system: PANC-1 cells; test: In vitro gemcitabine sensitivity after Tet-inducible GIPC shRNA knockdown; type: cell-based, human; settings: PANC-1, 0.5 μM to 50 μM, 72 h
Description: (§1) Antibodies. Antibody for β-actin and horseradish peroxidase-conjugated secondary antibodies were purchased from Santa Cruz Biotechnology. Anti-GIPC antibody was purchased from Thermo Fisher, USA. shRNA Transfection. The plasmids for Tet-on-inducible GIPC1 shRNA were purchased from Dharmacon, US. Lentivirus stocks for GIPC1 shRNA were prepared and infected into the target cells following standard procedures. After infection, 2 μg/mL of puromycin was added to the medium for antibiotic selection. For the Tet-On-inducible GIPC shRNA, 0.4 μg/mL of doxycycline was used to induce shRNA expression in the stably infected cells.
(§2) In vitro cytotoxicity assay: Approximately, 5×10^3 cells were seeded in 384-well plates. After 18-24 h, cells were treated with increasing concentrations of gemcitabine and incubated for further 72 h. At the end of the incubation, cell viability was measured using CellTiter-Glo® 2.0 Assay (Promega) as per the manufacturer's protocol. Briefly, 24 μL of reagent was added to each well. The plate was incubated at RT for 10 minutes and luminescence signals were measured using Spectramax i3x. Percentage viability is calculated as follows: Viability (%)=100×(ATreated−ABlank)/(AUntreated−ABlank).

[4] = system: AsPC-1 cells; test: as above; type: cell-based, human; settings: AsPC-1, 0.5 μM to 50 μM, 72 h
Description: as §1, §2

[5] = system: AsPC-1 tumors; test: Validation study, GIPC-1 knockdown plus gemcitabine, 5 mice per group; type: in vivo; settings: AsPC-1, 5 mice per group, gemcitabine 10 mg/kg
Description: (§3) This strategy is currently being used in ‘Avatar’ models for the development of personalized therapy for various diseases. These ‘Avatar’ models are developed by implanting patient tumor samples in mice for subsequent drug efficacy studies. […] We used the same strategy in our SMT. All procedures were performed according to the approved guidelines. For the pancreatic cancer orthotopic model, 6-8-week-old female SCID mice were obtained from in-house breeding. Approximately, 1×10^6 luciferase-labeled Tet-inducible GIPC-1 shRNA vector-transfected AsPC-1 or PANC-1 cells, resuspended in 100 μL of PBS were injected into the pancreas of each mouse. After three days of cell inoculation, GIPC-1 knockdown was induced by adding doxycycline (0.5 mg/mL) in drinking water for the remainder of the study. […] After completion of the experiment, all tumor-bearing mice were euthanized with CO2; tumors were harvested, and tumor volumes and weights were measured.

[6] = system: AsPC-1 orthotopic xenografts; test: Single mouse trial, GIPC-1 knockdown plus gemcitabine; type: in vivo, mice; settings: AsPC-1, single mouse, gemcitabine 10 mg/kg
From the text: as §3, with “In vivo tumor growth inhibition experiment: A single mouse trial (SMT) was used to assess the in vivo tumor inhibition study in combination with GIPC-1 knockdown plus gemcitabine treatment. This” for “This”

[7] = system: PANC-1 orthotopic xenografts; test: as above; type: in vivo, mice; settings: PANC-1, single mouse, gemcitabine 10 mg/kg
From the text: as §3, with “In vivo tumor growth inhibition experiment: A single mouse trial (SMT) was used to assess the in vivo tumor inhibition study in combination with GIPC-1 knockdown plus gemcitabine treatment. This” for “This”

NC(N)=NCCC[C@H](NC(=O)c1sccc1NS(=O)(=O)c1cccc2nsnc12)C(=O)O [EG00229]
% of Total drug loading w.r.t Total lipid ([1]; EG00229): 2.2% | Encapsulation efficiencies (%) ([1]; EG00229): 30%

CCc1c2c(nc3ccc(OC(=O)N4CCC(N5CCCCC5)CC4)cc13)-c1cc3c(c(=O)n1C2)COC(=O)[C@]3(O)CC [IRT, irinotecan]
water solubility [2]: poorly water-soluble

CO[C@H]1C[C@@H]2CC[C@@H](C)[C@@](O)(O2)C(=O)C(=O)N2CCCC[C@H]2C(=O)O[C@H]([C@H](C)C[C@@H]2CC[C@@H](OCCO)[C@H](OC)C2)CC(=O)[C@H](C)/C=C(\C)[C@@H](O)[C@@H](OC)C(=O)[C@H](C)C[C@H](C)/C=C/C=C/C=C/1C [everolimus]
water solubility [2]: water insoluble | % of Total drug loading w.r.t Total lipid ([1]; everolimus): 7.29% | Encapsulation efficiencies (%) ([1]; everolimus): ~100%

Nc1ccn([C@@H]2O[C@H](CO)[C@@H](O)C2(F)F)c(=O)n1 [gemcitabine]
growth inhibition by gemcitabine in GIPC-depleted vs control cells [3]: steeper growth inhibition curve | growth inhibition by gemcitabine in GIPC-depleted vs control cells ([3]; listed as Gemcitabine): sensitizes | growth inhibition by gemcitabine in GIPC-depleted vs control cells [4]: steeper growth inhibition curve | growth inhibition by gemcitabine in GIPC-depleted vs control cells ([4]; listed as Gemcitabine): sensitizes | response of GIPC-depleted tumors to gemcitabine (tumor volume, weight) [5]: increasing gemcitabine efficacy | response of GIPC-depleted tumors to gemcitabine (tumor volume, weight) ([5]; listed as Gemcitabine): more or less similar results | response of GIPC-depleted tumors to gemcitabine (tumor volume, weight) [6]: increasing gemcitabine efficacy | response of GIPC-depleted tumors to gemcitabine (tumor volume, weight) ([6]; listed as Gemcitabine): significantly higher response | response of GIPC-depleted tumors to gemcitabine (tumor volume, weight) [7]: increasing gemcitabine efficacy | response of GIPC-depleted tumors to gemcitabine (tumor volume, weight) ([7]; listed as Gemcitabine): significantly higher response

CCC1=C[C@@H]2CN(C1)Cc1c([nH]c3ccccc13)[C@@](C(=O)OC)(c1cc3c(cc1OC)N(C)[C@H]1[C@@](O)(C(=O)OC)[C@H](OC(C)=O)[C@]4(CC)C=CCN5CC[C@]31[C@@H]54)C2 [vinorelbine]
water solubility [2]: highly water soluble | % of Total drug loading w.r.t Total lipid ([1]; vinorelbine): 3.5% | Encapsulation efficiencies (%) ([1]; vinorelbine): 23.7%
